Our source for the Stern-Volmer parameters values is publication PMC8556375, “Binding interaction of a ring-hydroxylating dioxygenase with fluoranthene in Pseudomonas aeruginosa DN1” (Scientific Reports, 2021).

This test concerns the target T1, RHD alpha subunit (RhdA, RS30940) (Pseudomonas aeruginosa, UniProt Q9HTF4).
T1 construct: gene gbcA; alpha subunit alone, 428 residues, His-tagged, pET-28a (NdeI/EcoRI), E. coli BL21 Star (DE3); no tag removal told
T1 sequence (Q9HTF4 1-429): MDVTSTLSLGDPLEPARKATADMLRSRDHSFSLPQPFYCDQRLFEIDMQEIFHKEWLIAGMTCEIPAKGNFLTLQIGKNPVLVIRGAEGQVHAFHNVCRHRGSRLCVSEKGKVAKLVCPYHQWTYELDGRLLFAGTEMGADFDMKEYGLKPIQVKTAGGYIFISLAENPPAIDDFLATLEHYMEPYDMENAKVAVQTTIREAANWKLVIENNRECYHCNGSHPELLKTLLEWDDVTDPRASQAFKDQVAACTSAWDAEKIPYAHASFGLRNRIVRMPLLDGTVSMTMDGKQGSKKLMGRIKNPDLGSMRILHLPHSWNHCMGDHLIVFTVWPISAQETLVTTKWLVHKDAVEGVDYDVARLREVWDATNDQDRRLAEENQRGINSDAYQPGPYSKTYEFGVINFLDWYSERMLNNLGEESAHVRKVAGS
Nature of the test: intrinsic tryptophan fluorescence quenching (Stern-Volmer). Type of test: binding. The note with it: phosphate buffer pH 7.5; 5.0 x 10^-6 mol/L protein; 298, 304 and 310 K; excitation 278 nm.

In the case of `c1ccc2c(c1)-c1cccc3cccc-2c13` [fluoranthene], the Stern-Volmer parameters result is given as “intrinsic fluorescence of RHD alpha subunit could be quenched by fluoranthene”.
